Test results as given in ChEMBL document CHEMBL5046281, “N-Aryl Mercaptopropionamides as Broad-Spectrum Inhibitors of Metallo-β-Lactamases” (J Med Chem, 2022).
Activity calls are given as the source filed them. The rule behind the calls is not given here.

Assays:
Pseudomonas aeruginosa [1] = assay: Potentiation of imipenem-induced antibacterial activity against VIM-1 producing Pseudomonas aeruginosa T2357 clinical isolates assessed as imipenem MIC at 128 mg/l by microdilution method; assay type: functional
Escherichia coli [2] = assay: Potentiation of imipenem-induced antibacterial activity against NDM-1 producing Escherichia coli assessed as imipenem MIC at 32 ug/ml by microdilution method (reference value: 128 ug/ml); assay type: functional; conditions: dose 32 µg/ml
[3] = Selectivity ratio of MIC for antibacterial activity against OXA-23 producing Acinetobacter baumannii T2434 clinical isolates to MIC for potentiation of imipenem-induced antibacterial activity against OXA-23 producing Acinetobacter baumannii T2434 clinical isolates assessed as imipenem MIC at 128 mg/l; assay type: functional
Escherichia coli [4] = assay: Potentiation of imipenem-induced antibacterial activity against NDM-1 producing Escherichia coli assessed as fold change in imipenem MIC at 4 ug/ml by microdilution method; assay type: functional; conditions: dose 4 µg/ml
[5] = molecular target: T1, Matrix metalloproteinase-14 (Homo sapiens, UniProt P50281); assay: Inhibition of human MMP-14
Acinetobacter baumannii = assay: Potentiation of imipenem-induced antibacterial activity against OXA-23 producing Acinetobacter baumannii T2434 clinical isolates assessed as imipenem MIC at 128 mg/l by microdilution method; assay type: functional
[6] = Selectivity ratio of MIC for antibacterial activity against VIM-1 producing Pseudomonas aeruginosa T2357 clinical isolates to MIC for potentiation of imipenem-induced antibacterial activity against VIM-1 producing Pseudomonas aeruginosa T2357 clinical isolates assessed as imipenem MIC at 128 mg/l; assay type: functional
Pseudomonas aeruginosa [7] = assay: Potentiation of imipenem-induced antibacterial activity against IMP-1 producing Pseudomonas aeruginosa T2325 clinical isolates assessed as imipenem MIC at 128 mg/l by microdilution method; assay type: functional
Escherichia coli [8] = assay: Potentiation of imipenem-induced antibacterial activity against NDM-1 producing Escherichia coli assessed as imipenem MIC at 64 ug/ml by microdilution method (reference value: 128 ug/ml); assay type: functional; conditions: dose 64 µg/ml
Escherichia coli [9] = assay: Antibacterial activity against VIM-1 expressing Escherichia coli isolates assessed as inhibition of bacterial growth by microdilution method; assay type: functional, organism-based
Escherichia coli [10] = assay: Potentiation of imipenem-induced antibacterial activity against NDM-1 producing Escherichia coli assessed as imipenem MIC at 128 ug/ml by microdilution method (reference value: 128 ug/ml); assay type: functional; conditions: dose 128 µg/ml
[11] = Selectivity ratio of MIC for antibacterial activity against GIM-1 producing Enterobacter cloacae T2218 clinical isolates to MIC for potentiation of imipenem-induced antibacterial activity against GIM-1 producing Enterobacter cloacae T2218 clinical isolates assessed as imipenem MIC at 128 mg/l; assay type: functional
Klebsiella pneumoniae [12] = assay: Antibacterial activity against imipenem-resistant NDM-1-producing Klebsiella pneumoniae T2301 infected in Galleria mellonella larvae assessed as survival rate at 38.4 ug injected via proleg measured after 1 day by Kaplan-Meier method; assay type: functional; conditions: dose 38.4 µg
Escherichia coli [13] = assay: Potentiation of imipenem-induced antibacterial activity against NDM-1 producing Escherichia coli assessed as imipenem MIC at 16 ug/ml by microdilution method (reference value: 128 ug/ml); assay type: functional; conditions: dose 16 µg/ml
A549 = assay: Cytotoxicity against human A549 cells assessed as reduction in cell viability at 100 uM relative to control; assay type: toxicity, cell-based; conditions: a549, 100 µM
[14] = molecular target: Stromelysin-1 (Homo sapiens) (UniProt P08254); assay: Inhibition of human MMP-3 at 100 uM relative to control
Stromelysin-1 (Homo sapiens), sequence (P08254 100-477 limits assumed): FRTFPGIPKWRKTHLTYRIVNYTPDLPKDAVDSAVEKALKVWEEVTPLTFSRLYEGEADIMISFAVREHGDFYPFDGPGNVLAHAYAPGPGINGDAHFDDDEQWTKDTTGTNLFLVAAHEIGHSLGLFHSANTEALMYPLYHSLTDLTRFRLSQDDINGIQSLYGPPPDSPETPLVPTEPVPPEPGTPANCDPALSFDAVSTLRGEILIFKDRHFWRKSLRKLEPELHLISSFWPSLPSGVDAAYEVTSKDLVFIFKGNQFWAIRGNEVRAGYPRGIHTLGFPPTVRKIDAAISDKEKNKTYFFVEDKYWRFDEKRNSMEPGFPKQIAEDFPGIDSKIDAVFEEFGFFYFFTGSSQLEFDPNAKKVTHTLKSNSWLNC

Escherichia coli [15] = assay: Potentiation of imipenem-induced antibacterial activity against NDM-1 producing Escherichia coli assessed as fold change in imipenem MIC at 2 ug/ml by microdilution method; assay type: functional; conditions: dose 2 µg/ml
[16] = molecular target: T1, Matrix metalloproteinase-14; assay: Inhibition of human MMP-14 at 100 uM relative to control
BlaVIM-1 = BlaVIM-1 (Escherichia coli, UniProt Q8GDC1); assay: Inhibition of Escherichia coli VIM-1 using fluorocillin as substrate incubated for 30 mins by fluorescence based assay
Klebsiella pneumoniae [17] = assay: Selectivity ratio of MIC for antibacterial activity against NDM-1 producing Klebsiella pneumoniae T2301 clinical isolates to MIC for potentiation of imipenem-induced antibacterial activity against NDM-1 producing Klebsiella pneumoniae T2301 clinical isolates assessed as imipenem MIC at 128 mg/l
Escherichia coli [18] = assay: Potentiation of imipenem-induced antibacterial activity against KPC-2 producing Escherichia coli T2435 clinical isolates assessed as imipenem MIC at 128 mg/l by microdilution method; assay type: functional
[19] = Selectivity ratio of MIC for antibacterial activity against VIM-1 producing Enterobacter cloacae T2353 clinical isolates to MIC for potentiation of imipenem-induced antibacterial activity against VIM-1 producing Enterobacter cloacae T2353 clinical isolates assessed as imipenem MIC at 128 mg/l; assay type: functional
[20] = molecular target: T2, Interstitial collagenase (Homo sapiens) (UniProt P03956); assay: Inhibition of human MMP-1 at 100 uM relative to control
T2 sequence (whole entry): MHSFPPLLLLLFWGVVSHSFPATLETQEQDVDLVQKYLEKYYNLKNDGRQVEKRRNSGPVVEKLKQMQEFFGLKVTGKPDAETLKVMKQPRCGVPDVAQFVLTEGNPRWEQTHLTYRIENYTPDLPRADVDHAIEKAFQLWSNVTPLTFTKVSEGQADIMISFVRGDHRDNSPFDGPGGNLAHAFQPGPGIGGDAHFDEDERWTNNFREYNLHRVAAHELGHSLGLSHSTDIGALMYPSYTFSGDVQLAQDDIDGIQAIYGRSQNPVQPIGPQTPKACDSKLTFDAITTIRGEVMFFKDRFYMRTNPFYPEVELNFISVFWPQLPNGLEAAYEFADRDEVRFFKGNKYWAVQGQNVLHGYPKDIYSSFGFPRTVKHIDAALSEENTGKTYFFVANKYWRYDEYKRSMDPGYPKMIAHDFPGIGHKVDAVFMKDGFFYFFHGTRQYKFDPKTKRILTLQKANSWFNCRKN

Escherichia coli [21] = assay: Potentiation of imipenem-induced antibacterial activity against NDM-1 producing Escherichia coli assessed as fold change in imipenem MIC at 8 ug/ml by microdilution method; assay type: functional; conditions: dose 8 µg/ml
[22] = Selectivity ratio of MIC for antibacterial activity against NDM-1 producing Serratia marcescens T2352 clinical isolates to MIC for potentiation of imipenem-induced antibacterial activity against NDM-1 producing Serratia marcescens T2352 clinical isolates assessed as imipenem MIC at 128 mg/l; assay type: functional
Escherichia coli [23] = assay: Antibacterial activity against NDM-1 expressing Escherichia coli isolates assessed as inhibition of bacterial growth by microdilution method; assay type: functional, organism-based
[24] = molecular target: Neutrophil collagenase (Homo sapiens) (UniProt P22894); assay: Inhibition of human MMP-8 at 100 uM relative to control
Neutrophil collagenase (Homo sapiens), sequence (P22894 101-467 limits assumed): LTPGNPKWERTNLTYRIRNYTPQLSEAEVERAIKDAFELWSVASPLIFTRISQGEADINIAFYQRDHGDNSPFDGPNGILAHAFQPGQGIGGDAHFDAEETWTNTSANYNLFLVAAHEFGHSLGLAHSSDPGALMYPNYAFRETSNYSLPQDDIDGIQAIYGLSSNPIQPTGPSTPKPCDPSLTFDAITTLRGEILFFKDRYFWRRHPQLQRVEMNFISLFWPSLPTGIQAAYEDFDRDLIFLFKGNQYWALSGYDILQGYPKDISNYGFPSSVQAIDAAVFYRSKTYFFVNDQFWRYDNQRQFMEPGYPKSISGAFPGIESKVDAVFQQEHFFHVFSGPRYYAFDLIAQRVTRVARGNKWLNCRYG

[25] = Lipophilicity, log D of the compound at pH 7.4 by HPLC-MS analysis; assay type: physicochemical; conditions: buffer
Enterobacter cloacae = assay: Potentiation of imipenem-induced antibacterial activity against GIM-1 producing Enterobacter cloacae T2218 clinical isolates assessed as imipenem MIC at 128 mg/l by microdilution method; assay type: functional

O=C(CCS)Nc1cccc(C(=O)O)c1
MIC (Pseudomonas aeruginosa [1]): 256 µg/mL | MIC (Escherichia coli [2]): 8 µg/mL | Ratio [3]: 1 | fold change (FC) (Escherichia coli [4]): 1 | IC50 [5]: 68 µM | MIC (Acinetobacter baumannii): 32 µg/mL | Ratio [6]: 1 | MIC (Pseudomonas aeruginosa [7]): 16 µg/mL | MIC (Escherichia coli [8]): 2 µg/mL | Activity (Escherichia coli [9]): inactive | MIC (Escherichia coli [10]): ≤ 0.5 µg/mL | Ratio [11]: 1 | Activity (Klebsiella pneumoniae [12]): <20% | MIC (Escherichia coli [13]): 64 µg/mL | Activity (A549): < 10% | inhibition [14]: < 10% | fold change (FC) (Escherichia coli [15]): 1 | inhibition [16]: 61% | IC50 (BlaVIM-1): 1.2 µM | Ratio (Klebsiella pneumoniae [17]): 32 | MIC (Escherichia coli [18]): 4 µg/mL | Ratio [19]: 2 | inhibition [20]: < 10% | fold change (FC) (Escherichia coli [21]): 2 | Ratio [22]: 64 | Activity (Escherichia coli [23]): inactive | inhibition [24]: < 10% | logD [25]: -0.96 | MIC (Enterobacter cloacae): 2 µg/mL
